Like-named read-outs stand apart in the source and are kept apart here. *1 amine or outer side, *2 acyl side, *3 side chain or, on linkers, in order; H or OH if unused. Where a SMILES comes first, the peptide text is derived from it. [ ]: non-standard residue; d: D form. Phe(4-(trans-4-COOH-cHex)) = N[C@@H](Cc1ccc([C@H]2CC[C@H](C(=O)O)CC2)cc1)C(=O)O; Ala(piperidin-4-yl) = O=C([C@H](CC1CCN([*:3])CC1)N[*:1])[*:2]; Trp(βS-Me,4-F) = C[C@@H](c1c[nH]c2cccc(F)c12)[C@H](N)C(=O)O; Bip(4'-COOH) = N[C@@H](Cc1ccc(-c2ccc(C(=O)O)cc2)cc1)C(=O)O; X1 = CC(=O)N1CCN(c2ccc(C[C@H](N[*:1])C(=O)[*:2])cn2)CC1; 1Nal(3S-Me) = C[C@@H](c1cccc2ccccc12)[C@H](N)C(=O)O; Ala(pyrimidin-5-yl) = N[C@@H](Cc1cncnc1)C(=O)O; Phe(4-COOH) = N[C@@H](Cc1ccc(C(=O)O)cc1)C(=O)O; h3Pal(5-CN) = N#Cc1cncc(CC[C@H](N)C(=O)O)c1; Pro(4R-NH2) = N[C@H]1CN[C@H](C(=O)O)C1; AEF = NCCOc1ccc(C[C@H](N)C(=O)O)cc1; hTyr = N[C@@H](CCc1ccc(O)cc1)C(=O)O; hCha = N[C@@H](CCC1CCCCC1)C(=O)O; 4Pal = N[C@@H](Cc1ccncc1)C(=O)O; dDab = NCC[C@@H](N)C(=O)O; dNMeA = CN[C@H](C)C(=O)O; Dap = NC[C@H](N)C(=O)O
Target: T1, Recombinant human IL-1β (Homo sapiens, UniProt P01584)
T1 construct: purchased BioLegend 579404
T1 sequence (P01584 117-269): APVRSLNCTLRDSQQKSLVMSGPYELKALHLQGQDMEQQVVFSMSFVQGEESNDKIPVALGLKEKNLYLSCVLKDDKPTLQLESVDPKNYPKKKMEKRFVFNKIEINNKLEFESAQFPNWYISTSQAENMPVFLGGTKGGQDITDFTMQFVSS
Experiment: IL-6 assay in MRC5 cells: inhibition of IL-1β induced IL-6 secretion (AlphaLISA)
Format: cell-based
Settings: inhibition of IL-1β induced IL-6 secretion in MRC5 cells, read-out: MRC5 IC50
How it was run: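 IL-1β at 2×EC80 in seeding medium (EMEM, 0.025% BSA) preincubated 1 h at ambient temperature with compound, then 3000 MRC5 cells/well added and incubated overnight at 37 °C, 5% CO2. IL-6 in conditioned medium quantified by AlphaLISA; IC50 from 4-parameter logistic fit.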

[1] = IL-1β pre-incubated 1 hour with compound

Row | Structure (SMILES) | IC50 [nM] | IC50 [1] [nM]
1 | C[C@@H]1C(=O)NCC(=O)N[C@@H](Cc2ccc(-c3ccc(C(=O)O)cc3)cc2)C(=O)N[C@@H](Cc2ccncc2)C(=O)NCC(=O)N[C@H](CCN)C(=O)N[C@@H](CCC2CCCCC2)C(=O)N[C@@H](Cc2ccc([C@H]3CC[C@H](C(=O)O)CC3)cc2)C(=O)N[C@@H](Cc2c[nH]c3ccccc23)C(=O)N[C@@H](Cc2ccc(C(=O)O)cc2)C(=O)NCC(=O)N2C[C@H](N)C[C@H]2C(=O)N[C@@H]([C@@H](C)c2cccc3ccccc23)C(=O)N[C@@H](CC(=O)O)C(=O)N1C [Example 196] (cyclo([Phe(4-(trans-4-COOH-cHex))]W[Phe(4-COOH)]G[Pro(4R-NH2)][1Nal(3S-Me)]D[dNMeA]G[Bip(4'-COOH)][4Pal]G[dDab][hCha])) | 0.03 | 
2 | C[C@@H]1C(=O)NCC(=O)N[C@@H](Cc2ccc(-c3ccc(C(=O)O)cc3)cc2)C(=O)N[C@@H](Cc2cncnc2)C(=O)N[C@@H](CN)C(=O)N[C@H](C)C(=O)N[C@@H](CCc2cncc(C#N)c2)C(=O)N[C@@H](Cc2ccc(-c3ccc(C(=O)O)cc3)cc2)C(=O)N[C@@H](Cc2c[nH]c3ccccc23)C(=O)N[C@@H](Cc2ccc(C(=O)O)cc2)C(=O)NCC(=O)N2C[C@H](N)C[C@H]2C(=O)N[C@@H]([C@@H](C)c2cccc3ccccc23)C(=O)N[C@@H](CC(=O)O)C(=O)N1C [Example 27] (cyclo([Bip(4'-COOH)]W[Phe(4-COOH)]G[Pro(4R-NH2)][1Nal(3S-Me)]D[dNMeA]G[Bip(4'-COOH)][Ala(pyrimidin-5-yl)][Dap][dA][h3Pal(5-CN)])) |  | 0.017
3 | CC(=O)N1CCN(c2ccc(C[C@@H]3NC(=O)[C@H](CCc4cncc(C#N)c4)NC(=O)[C@@H](CC(C)C)NC(=O)[C@H](CC(C)C)NC(=O)[C@H](CCCCN)NC(=O)[C@H](Cc4ccc(-c5ccc(C(=O)O)cc5)cc4)NC(=O)CNC(=O)[C@@H](C)N(C)C(=O)[C@H](CC(=O)O)NC(=O)[C@H]([C@@H](C)c4cccc5ccccc45)NC(=O)[C@@H]4C[C@@H](N)CN4C(=O)CNC(=O)[C@H](Cc4ccc(C(=O)O)cc4)NC(=O)[C@H](Cc4c[nH]c5ccccc45)NC3=O)cn2)CC1 [Example 178] (cyclo([X1]W[Phe(4-COOH)]G[Pro(4R-NH2)][1Nal(3S-Me)]D[dNMeA]G[Bip(4'-COOH)]KL[dL][h3Pal(5-CN)])) | 0.019 | 

Next, values leading:

Row | IC50 [nM] | IC50 [1] [nM] | Structure (SMILES)
4 | 0.781 |  | CC(=O)NCCOc1ccc(C[C@@H]2NC(=O)[C@H](CC3CCNCC3)NC(=O)[C@@H](C)NC(=O)[C@H](CC(C)C)NC(=O)[C@H](Cc3c[nH]c4ccccc34)NC(=O)[C@H](Cc3ccc(-c4ccc(C(=O)O)cc4)cc3)NC(=O)CNC(=O)[C@@H](C)N(C)C(=O)[C@H](CC(=O)O)NC(=O)[C@H]([C@@H](C)c3c[nH]c4cccc(F)c34)NC(=O)[C@@H]3C[C@@H](N)CN3C(=O)CNC(=O)[C@H](Cc3ccc(C(=O)O)cc3)NC(=O)[C@H](Cc3c[nH]c4ccccc34)NC2=O)cc1 [Example 165] (cyclo([AEF](Ac)W[Phe(4-COOH)]G[Pro(4R-NH2)][Trp(βS-Me,4-F)]D[dNMeA]G[Bip(4'-COOH)]WL[dA][Ala(piperidin-4-yl)]))
5 |  | 0.0599 | CC(=O)N1CCN(c2ccc(C[C@@H]3NC(=O)[C@H](CCc4ccc(O)cc4)NC(=O)[C@@H](C)NC(=O)[C@H](CC(C)C)NC(=O)[C@H](CCCCN)NC(=O)[C@H](Cc4ccc(-c5ccc(C(=O)O)cc5)cc4)NC(=O)CNC(=O)[C@@H](C)N(C)C(=O)[C@H](CC(=O)O)NC(=O)[C@H]([C@@H](C)c4cccc5ccccc45)NC(=O)[C@@H]4C[C@@H](N)CN4C(=O)CNC(=O)[C@H](Cc4ccc(C(=O)O)cc4)NC(=O)[C@H](Cc4c[nH]c5ccccc45)NC3=O)cn2)CC1 [Example 3] (cyclo([X1]W[Phe(4-COOH)]G[Pro(4R-NH2)][1Nal(3S-Me)]D[dNMeA]G[Bip(4'-COOH)]KL[dA][hTyr]))
